What was measured:
[1] = molecular target: MAP/microtubule affinity-regulating kinase 3 (Homo sapiens, UniProt P27448); assay: Binding affinity to wild-type human full length MARK3 (M1 to L729 residues) expressed in bacterial expression system by measuring active site-directed competition binding based Kinomescan method
[2] = molecular target: Phosphatidylinositol 3-kinase C2 domain-containing subunit gamma (Homo sapiens, UniProt O75747); assay: Binding affinity to human partial length PIK3C2G (M1 to I1446 residues) expressed in mammalian expression system by active site-directed competition binding based Kinomescan method
[3] = molecular target: T1, Interleukin-1 receptor-associated kinase 1 (Homo sapiens, UniProt P51617); assay: Binding affinity to wild-type human partial length IRAK1 (R194 to S712 residues) expressed in mammalian expression system by active site-directed competition binding based Kinomescan method
Target sequence in this assay (P51617 whole entry, the tested form may be a part): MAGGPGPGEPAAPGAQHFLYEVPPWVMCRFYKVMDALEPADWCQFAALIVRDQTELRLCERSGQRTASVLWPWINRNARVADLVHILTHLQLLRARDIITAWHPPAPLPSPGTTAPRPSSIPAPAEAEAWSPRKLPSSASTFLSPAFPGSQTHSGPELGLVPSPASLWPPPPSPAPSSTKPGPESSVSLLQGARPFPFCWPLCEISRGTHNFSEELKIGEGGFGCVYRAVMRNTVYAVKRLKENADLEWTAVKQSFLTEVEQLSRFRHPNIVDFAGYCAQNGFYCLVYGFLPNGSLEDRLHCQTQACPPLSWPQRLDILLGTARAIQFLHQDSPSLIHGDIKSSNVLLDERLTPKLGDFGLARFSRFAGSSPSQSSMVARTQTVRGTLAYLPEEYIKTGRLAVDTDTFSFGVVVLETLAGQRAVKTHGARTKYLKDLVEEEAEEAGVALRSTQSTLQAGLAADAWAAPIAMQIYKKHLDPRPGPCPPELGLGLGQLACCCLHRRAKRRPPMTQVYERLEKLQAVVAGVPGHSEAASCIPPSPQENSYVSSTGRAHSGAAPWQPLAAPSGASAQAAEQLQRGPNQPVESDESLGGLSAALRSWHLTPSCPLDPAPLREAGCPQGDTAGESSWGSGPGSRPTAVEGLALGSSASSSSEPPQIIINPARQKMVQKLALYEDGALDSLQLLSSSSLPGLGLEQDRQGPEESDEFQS

HCT-116 [4] = assay: Antiproliferative activity against human HCT-116 cells assessed as growth inhibition after 96 hrs by CCK8 assay; format: functional, cell-based; conditions: HCT-116, 96 h
COLO 205 = assay: Antiproliferative activity against human COLO-205 cells assessed as growth inhibition after 96 hrs by CCK8 assay; format: functional, cell-based; conditions: COLO 205, 96 h
HCT-116 [5] = assay: Induction of apoptosis in human HCT-116 cells assessed as viable cells at 1000 nM incubated for 48 hrs by annexin V and 7-AAD staining based flow cytometry analysis (reference value: 82.09 %); format: functional; conditions: read-out: Activity
HCT-116 [6] = assay: Induction of apoptosis in human HCT-116 cells assessed as early apoptotic cells at 333.3 nM incubated for 48 hrs by annexin V and 7-AAD staining based flow cytometry analysis (reference value: 8.12 %); format: functional
HCT-116 [7] = assay: Induction of apoptosis in human HCT-116 cells assessed as early apoptotic cells at 1000 nM incubated for 48 hrs by annexin V and 7-AAD staining based flow cytometry analysis (reference value: 8.12 %); format: functional
HCT-116 [8] = assay: Induction of apoptosis in human HCT-116 cells assessed as late apoptotic cells at 1000 nM incubated for 48 hrs by annexin V and 7-AAD staining based flow cytometry analysis (reference value: 8.59 %); format: functional
HCT-116 [9] = assay: Induction of apoptosis in human HCT-116 cells assessed as necrotic cells at 111.1 nM incubated for 48 hrs by annexin V and 7-AAD staining based flow cytometry analysis (reference value: 1.20 %); format: functional
[10] = Half life in Sprague-Dawley rat at 5 mg/kg, iv; format: ADME, organism-based; conditions: in vivo
[11] = Half life in Sprague-Dawley rat at 25 mg/kg, po; format: ADME, organism-based; conditions: in vivo
[12] = Cmax in Sprague-Dawley rat at 5 mg/kg, iv; format: ADME, organism-based; design: route intravenous, dose 5 mg/kg; conditions: in vivo
[13] = AUC (0 to infinity) in Sprague-Dawley rat at 25 mg/kg, po; format: ADME, organism-based; design: time infinity, route oral, dose 25 mg/kg; conditions: in vivo
[14] = Clearance in Sprague-Dawley rat at 5 mg/kg, iv; format: ADME, organism-based; conditions: in vivo
[15] = Toxicity in CB17-SCID mouse xenografted with human HCT-116 cells xenografted assessed as body weight loss at 50 mg/kg, po administered once daily relative to control; format: organism-based; conditions: in vivo
[16] = Toxicity in CB17-SCID mouse xenografted with human HCT-116 cells xenografted assessed as liver damage at 50 mg/kg, po administered once daily relative to control; format: organism-based; conditions: in vivo
[17] = molecular target: Dual specificity protein kinase TTK (Homo sapiens) (UniProt P33981); conditions: dose 100.0 nM, time 40.0 min
Dual specificity protein kinase TTK (Homo sapiens), sequence (P33981 whole entry, canonical isoform): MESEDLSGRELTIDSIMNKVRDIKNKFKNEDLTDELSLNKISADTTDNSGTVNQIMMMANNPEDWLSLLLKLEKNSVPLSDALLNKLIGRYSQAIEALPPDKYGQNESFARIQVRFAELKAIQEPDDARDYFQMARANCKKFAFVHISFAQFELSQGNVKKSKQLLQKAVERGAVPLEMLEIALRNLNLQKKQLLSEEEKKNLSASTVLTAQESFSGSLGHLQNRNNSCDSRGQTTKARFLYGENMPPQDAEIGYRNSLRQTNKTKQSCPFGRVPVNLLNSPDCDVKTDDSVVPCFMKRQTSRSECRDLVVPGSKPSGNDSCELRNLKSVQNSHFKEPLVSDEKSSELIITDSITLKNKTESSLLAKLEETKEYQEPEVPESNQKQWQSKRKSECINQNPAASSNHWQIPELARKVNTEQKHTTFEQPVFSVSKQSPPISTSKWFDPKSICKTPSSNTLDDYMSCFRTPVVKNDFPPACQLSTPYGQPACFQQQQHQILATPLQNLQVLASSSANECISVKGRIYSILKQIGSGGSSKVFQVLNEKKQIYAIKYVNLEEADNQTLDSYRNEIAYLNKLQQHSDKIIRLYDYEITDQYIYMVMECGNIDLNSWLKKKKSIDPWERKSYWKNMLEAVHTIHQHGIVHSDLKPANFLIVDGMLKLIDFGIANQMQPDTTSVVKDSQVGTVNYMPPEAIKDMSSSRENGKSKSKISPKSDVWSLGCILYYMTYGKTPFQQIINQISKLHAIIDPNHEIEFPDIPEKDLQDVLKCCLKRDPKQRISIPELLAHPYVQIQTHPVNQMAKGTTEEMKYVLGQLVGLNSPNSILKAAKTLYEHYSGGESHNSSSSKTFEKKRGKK

[18] = molecular target: Phosphatidylinositol 4,5-bisphosphate 3-kinase catalytic subunit delta isoform (Homo sapiens) (UniProt O00329); conditions: dose 100.0 nM
Description: Inhibition of human PIK3CD at 100 nM by scintillation counting based direct-filter Binding radiometric assay relative to control

[19] = molecular target: Death-associated protein kinase 3 (Homo sapiens, UniProt O43293); conditions: dose 100.0 nM
Description: Inhibition of human DAPK3 at 100 nM by direct-filter Binding radiometric assay relative to control

[20] = molecular target: Serine/threonine-protein kinase 16 (Homo sapiens) (UniProt O75716); conditions: dose 100.0 nM
Serine/threonine-protein kinase 16 (Homo sapiens), sequence (O75716 whole entry): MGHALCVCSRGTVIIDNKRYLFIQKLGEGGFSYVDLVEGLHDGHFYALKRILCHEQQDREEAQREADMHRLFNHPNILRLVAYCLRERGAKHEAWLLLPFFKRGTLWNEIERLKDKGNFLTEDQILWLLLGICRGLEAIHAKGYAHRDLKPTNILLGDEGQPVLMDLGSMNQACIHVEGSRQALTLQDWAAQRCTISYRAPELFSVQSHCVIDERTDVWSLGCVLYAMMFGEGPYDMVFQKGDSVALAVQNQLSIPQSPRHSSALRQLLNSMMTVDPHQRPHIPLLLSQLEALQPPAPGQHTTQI
Description: Inhibition of human STK16 at 100 nM by direct-filter Binding radiometric assay relative to control

[21] = molecular target: NUAK family SNF1-like kinase 2 (Homo sapiens) (UniProt Q9H093); conditions: dose 100.0 nM
NUAK family SNF1-like kinase 2 (Homo sapiens), sequence (Q9H093 whole entry): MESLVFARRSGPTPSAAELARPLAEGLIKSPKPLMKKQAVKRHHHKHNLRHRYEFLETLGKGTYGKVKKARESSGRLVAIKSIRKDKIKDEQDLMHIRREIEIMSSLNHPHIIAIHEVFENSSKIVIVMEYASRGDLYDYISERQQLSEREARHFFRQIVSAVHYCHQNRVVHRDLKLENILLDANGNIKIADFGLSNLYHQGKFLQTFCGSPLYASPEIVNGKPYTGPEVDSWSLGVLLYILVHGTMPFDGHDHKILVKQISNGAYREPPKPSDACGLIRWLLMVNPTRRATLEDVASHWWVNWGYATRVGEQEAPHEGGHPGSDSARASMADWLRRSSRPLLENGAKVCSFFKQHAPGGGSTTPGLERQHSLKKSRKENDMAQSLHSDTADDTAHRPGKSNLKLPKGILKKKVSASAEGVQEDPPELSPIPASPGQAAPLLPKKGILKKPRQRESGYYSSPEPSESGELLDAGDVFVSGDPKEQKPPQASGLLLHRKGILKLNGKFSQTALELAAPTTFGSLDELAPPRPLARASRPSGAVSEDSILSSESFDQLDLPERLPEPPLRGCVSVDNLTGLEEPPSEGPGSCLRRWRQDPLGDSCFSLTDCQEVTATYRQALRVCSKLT

[22] = molecular target: Serine/threonine-protein kinase DCLK1 (Homo sapiens) (UniProt O15075); conditions: dose 100.0 nM
Serine/threonine-protein kinase DCLK1 (Homo sapiens), sequence (O15075 whole entry): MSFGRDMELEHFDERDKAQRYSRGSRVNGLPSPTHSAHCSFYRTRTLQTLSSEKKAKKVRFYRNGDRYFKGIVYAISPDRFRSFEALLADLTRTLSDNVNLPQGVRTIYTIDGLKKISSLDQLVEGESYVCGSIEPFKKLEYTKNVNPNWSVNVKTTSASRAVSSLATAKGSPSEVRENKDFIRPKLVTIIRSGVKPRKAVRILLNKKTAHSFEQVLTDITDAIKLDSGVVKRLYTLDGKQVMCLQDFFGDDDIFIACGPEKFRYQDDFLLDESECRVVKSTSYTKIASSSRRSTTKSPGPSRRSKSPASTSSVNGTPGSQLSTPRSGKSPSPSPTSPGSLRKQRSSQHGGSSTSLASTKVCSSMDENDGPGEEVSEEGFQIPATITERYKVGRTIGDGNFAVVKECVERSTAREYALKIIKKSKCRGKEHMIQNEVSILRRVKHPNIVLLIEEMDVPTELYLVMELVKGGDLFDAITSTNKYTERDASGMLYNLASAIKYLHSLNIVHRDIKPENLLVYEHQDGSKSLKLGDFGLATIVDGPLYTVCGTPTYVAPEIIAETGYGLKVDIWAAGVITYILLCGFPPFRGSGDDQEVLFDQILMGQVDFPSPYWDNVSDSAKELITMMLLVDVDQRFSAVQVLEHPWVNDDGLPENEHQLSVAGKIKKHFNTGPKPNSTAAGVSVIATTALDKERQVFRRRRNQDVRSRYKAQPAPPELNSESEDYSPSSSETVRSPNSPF
Description: Inhibition of human DCAMKL1 at 100 nM by direct-filter Binding radiometric assay relative to control

[23] = molecular target: Maternal embryonic leucine zipper kinase (Homo sapiens) (UniProt Q14680); conditions: dose 100.0 nM
Maternal embryonic leucine zipper kinase (Homo sapiens), sequence (Q14680 whole entry, looked up): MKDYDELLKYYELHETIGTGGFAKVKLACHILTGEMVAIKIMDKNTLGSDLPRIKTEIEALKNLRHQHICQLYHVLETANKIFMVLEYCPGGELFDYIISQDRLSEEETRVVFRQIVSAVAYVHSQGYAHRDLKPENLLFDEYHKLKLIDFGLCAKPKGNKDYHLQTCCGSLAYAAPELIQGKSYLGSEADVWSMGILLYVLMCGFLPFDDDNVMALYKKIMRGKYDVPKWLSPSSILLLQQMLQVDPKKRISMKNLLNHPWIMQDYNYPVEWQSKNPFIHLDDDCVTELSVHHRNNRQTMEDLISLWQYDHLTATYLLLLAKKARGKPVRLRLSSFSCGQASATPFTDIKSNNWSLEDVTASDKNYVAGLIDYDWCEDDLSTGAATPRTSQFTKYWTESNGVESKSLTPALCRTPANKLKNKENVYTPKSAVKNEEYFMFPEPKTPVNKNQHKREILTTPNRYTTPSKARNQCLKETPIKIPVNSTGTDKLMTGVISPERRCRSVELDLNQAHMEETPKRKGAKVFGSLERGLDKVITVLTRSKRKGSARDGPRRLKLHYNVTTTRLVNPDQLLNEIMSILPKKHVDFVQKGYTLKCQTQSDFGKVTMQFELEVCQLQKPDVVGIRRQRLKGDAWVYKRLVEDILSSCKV

[24] = molecular target: Death-associated protein kinase 2 (Homo sapiens) (UniProt Q9UIK4); conditions: dose 100.0 nM
Death-associated protein kinase 2 (Homo sapiens), sequence (Q9UIK4 whole entry, looked up, the tested form may be a part): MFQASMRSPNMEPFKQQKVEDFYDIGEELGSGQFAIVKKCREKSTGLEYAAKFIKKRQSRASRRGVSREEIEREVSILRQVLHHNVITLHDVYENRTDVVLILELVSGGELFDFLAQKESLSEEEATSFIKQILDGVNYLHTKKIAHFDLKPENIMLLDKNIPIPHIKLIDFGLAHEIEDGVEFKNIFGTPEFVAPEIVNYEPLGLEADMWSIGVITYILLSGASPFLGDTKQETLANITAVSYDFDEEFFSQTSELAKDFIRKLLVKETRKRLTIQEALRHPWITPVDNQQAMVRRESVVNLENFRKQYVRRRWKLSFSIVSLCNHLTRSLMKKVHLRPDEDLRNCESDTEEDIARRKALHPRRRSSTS
Description: Inhibition of human recombinant full length DAPK2 using Calmodulin as substrate at 100 nM direct filter-binding radiometric kinase activity assay relative to control

[25] = molecular target: Phosphatidylinositol 3-kinase C2 domain-containing subunit gamma (Homo sapiens) (UniProt O75747); conditions: dose 100.0 nM
Description: Inhibition of PIK3C2G (unknown origin) at 100 nM direct filter-binding radiometric kinase activity assay relative to control

[26] = molecular target: T1, Interleukin-1 receptor-associated kinase 1; conditions: dose 100.0 nM
Target sequence in this assay (P51617 whole entry, looked up, the tested form may be a part): as the sequence (P51617 whole entry, the tested form may be a part) above
Description: Inhibition of human recombinant IRAK1 (198 to end) using myelin ba as substrate at 100 nM direct filter-binding radiometric kinase activity assay relative to control

[27] = molecular target: Phosphorylase b kinase gamma catalytic chain, liver/testis isoform (Homo sapiens) (UniProt P15735); conditions: dose 100.0 nM
Description: Inhibition of human recombinant PHKG2 using ZIPtide at 100 nM direct filter-binding radiometric kinase activity assay relative to control

[28] = molecular target: Serine/threonine-protein kinase ULK2 (Homo sapiens) (UniProt Q8IYT8); conditions: dose 100.0 nM
Description: Inhibition of human recombinant ULK2 (1 to 306) using casein at 100 nM direct filter-binding radiometric kinase activity assay relative to control

[29] = molecular target: Mitogen-activated protein kinase 8 (Homo sapiens) (UniProt P45983); conditions: dose 100.0 nM
Mitogen-activated protein kinase 8 (Homo sapiens), sequence (P45983 whole entry): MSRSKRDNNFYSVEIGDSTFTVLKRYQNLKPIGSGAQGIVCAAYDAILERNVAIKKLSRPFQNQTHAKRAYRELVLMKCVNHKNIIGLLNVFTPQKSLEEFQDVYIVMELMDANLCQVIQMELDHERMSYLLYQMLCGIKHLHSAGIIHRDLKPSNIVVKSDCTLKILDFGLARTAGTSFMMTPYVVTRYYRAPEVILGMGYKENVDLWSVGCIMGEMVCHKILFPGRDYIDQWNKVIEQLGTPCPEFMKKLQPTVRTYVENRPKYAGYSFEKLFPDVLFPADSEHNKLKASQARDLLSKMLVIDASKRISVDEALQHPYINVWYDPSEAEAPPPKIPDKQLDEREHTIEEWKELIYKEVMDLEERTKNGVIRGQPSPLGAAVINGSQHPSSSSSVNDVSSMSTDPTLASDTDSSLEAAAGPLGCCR
Description: Inhibition of human full length JNK-1 using ATF2 as substrate at 100 nM direct filter-binding radiometric kinase activity assay relative to control

**Q.** With `COc1cc(N2CCN(C)CC2)ccc1Nc1ncc2c(C)cc(=O)n([C@H]3CC[C@@H](NC(=O)C4CCCCC4)CC3)c2n1` as the compound, how does the Kd [1] read?
**A.** The Kd was 11 nM.

**Q.** And the Kd [2]?
**A.** The Kd was greater than 1000 nM.

**Q.** What about the Kd [3] of the same compound?
**A.** The Kd was greater than 1000 nM.

**Q.** What about the IC50 (HCT-116 [4]) of the same compound?
**A.** Its IC50 is 410 nM.

**Q.** What about the IC50 (COLO 205) of the same compound?
**A.** Its IC50 is 280 nM.

**Q.** What about the viability at 1 µM (HCT-116 [5]) of the same compound?
**A.** The viability at 1 µM was 56.6%.

**Q.** And the Activity (HCT-116 [6])?
**A.** Its Activity is 13.5%.

**Q.** And the Activity (HCT-116 [7])?
**A.** Its Activity is 18.81%.

**Q.** What about the Activity (HCT-116 [8]) of the same compound?
**A.** The Activity was 21.18%.

**Q.** And the Activity (HCT-116 [9])?
**A.** Its Activity is 0.75%.

**Q.** What about the half-life [10] of the same compound?
**A.** The half-life was 3.58 h.

**Q.** What about the half-life [11] of the same compound?
**A.** Its half-life is 6.01 h.

**Q.** And the Cmax [12]?
**A.** The Cmax was 2530 ng/mL.

**Q.** And the AUC(0-inf) [13]?
**A.** Its AUC(0-inf) is 13000 ng·h/mL.

**Q.** And the clearance [14]?
**A.** Its clearance is 15.8 mL/min/kg.

**Q.** And the Activity [15]?
**A.** Its Activity is less than 15%.

**Q.** And the Activity [16]?
**A.** Its Activity is “Non-Toxic”.

**Q.** And the inhibition [17]?
**A.** The inhibition was 98.1%.

**Q.** What about the inhibition [18] of the same compound?
**A.** The inhibition was 100%.

**Q.** What about the inhibition [19] of the same compound?
**A.** The inhibition was 94.5%.

**Q.** What about the inhibition [20] of the same compound?
**A.** The inhibition was 87%.

**Q.** And the inhibition [21]?
**A.** Its inhibition is 84%.

**Q.** And the inhibition [22]?
**A.** Its inhibition is 80%.

**Q.** What about the inhibition [23] of the same compound?
**A.** Its inhibition is 77%.

**Q.** And the inhibition [24]?
**A.** The inhibition was 65%.

**Q.** What about the inhibition [25] of the same compound?
**A.** The inhibition was 94.4%.

**Q.** What about the inhibition [26] of the same compound?
**A.** The inhibition was 91.8%.

**Q.** And the inhibition [27]?
**A.** Its inhibition is 87%.

**Q.** And the inhibition [28]?
**A.** The inhibition was 85%.

**Q.** And the inhibition [29]?
**A.** Its inhibition is 75%.
